Data published in ChEMBL document CHEMBL3507680, “University of Dundee, Gates Library screen for HepG2 cell viability”.

Assay: Human HepG2 cell viability assay in 384 well format
Format: toxicity, cell-based
Parameters: dose 125 nL, time 70.5 hour; cytotoxicity at 70.5 h: concentration not given beside the values
Conditions: HepG2 cells, read-out: Inhibition

| SMILES | cytotoxicity at 70.5 h [%] |
| --- | --- |
| Cc1c(Br)cccc1C(=O)NC(C)CN1CCCC1=O (configuration not stated) | 1.84 |
| Cc1cc(C(=O)N2CCC(c3nccn3Cc3ccccn3)CC2)no1 | -6.61 |
| CCCc1nnc(N2CCN(Cc3ccccc3OC)CC2)o1 | 23.6 |
| Cc1cccc(CN2C(=O)C[C@H]3[C@@H]2CCN3Cc2nccs2)n1 | -22.3 |
| Cc1nccn1Cc1nnc(C2CCN(c3ccncc3F)CC2)n1C | 17.7 |
| Cc1ccc(C(=O)NCCC2CN(c3cnn(C)c(=O)c3)CCO2)s1 (configuration not stated) | -3.44 |
| CN(Cc1nnc2ccccn12)C(=O)CCNC(=O)C(C)(C)C | 17.1 |
| Cc1cccc2c1nc1n2[C@@H](CNC(=O)c2ccncc2)COC1 | -3.38 |
| FC1(F)CCN(Cc2cccnc2)CC12CCN(c1ccccc1)C2 (configuration not stated) | -1.56 |
| O=C(c1ccco1)N1CCOCC2(CCN(C3CCOCC3)C2)C1 (configuration not stated) | -8.45 |
| CN(C)c1ncc(CN2CCOC(C(=O)Nc3ccccc3)C2)cn1 (configuration not stated) | -6.09 |
| Cc1c(CN2CCCC(c3[nH]ncc3S(C)(=O)=O)C2)cnn1C (configuration not stated) | -5.66 |
| CSCc1cccc(S(=O)(=O)N2CCCCC2)c1 | -6.14 |
| CCc1cc(C(=O)N2CCCC(Cc3ccc(NC)nn3)C2)on1 (configuration not stated) | 50.7 |
| CCN1CCN(C2CCN(Cc3nnc(C4CC4)o3)CC2)C1=O | 12.8 |
| CC(NC(=O)C1=NN(C)C(=O)CC1)c1ccc(F)cc1F (configuration not stated) | 20 |
| Cn1cc(CN2CCc3ncn(C)c3C2COCc2cccnc2)cn1 (configuration not stated) | -0.736 |
| Cc1cnn(CC2CCCCN2CC(=O)NCc2ccccn2)c1 (configuration not stated) | -11 |
| O=C(NC[C@]12COC[C@H]1CN(Cc1nccs1)C2)c1cscn1 | -3.54 |

| SMILES | cytotoxicity at 70.5 h [%] |
| --- | --- |
| NC(=O)NCC(=O)N1C[C@H]2CC[C@@H]1CN(Cc1ccccc1)C2 | 1.42 |
| CCc1cccc2c(CC(=O)N(C)CCN(C)C)c(C)[nH]c12 | -8.74 |
| c1ccc(Cc2nc(CNC3CCC4(CCNCC4)CC3)no2)cc1 | -4.21 |
| CNC(=O)c1nc(CN2CCOC(C(F)(F)F)C2)no1 (configuration not stated) | 28.6 |
| Cc1cc(=O)n2nc(Oc3cccc(C(N)=O)c3)sc2n1 | -25 |
| CC(=O)Nc1sc2c(c1C(=O)O)CCc1ccccc1-2 | -11.4 |
| COc1ccc(C2CCCN2c2ccc(C#N)cn2)c(OC)c1 (configuration not stated) | 4.11 |
| O=C(NCCNc1ccc(C(F)(F)F)cn1)c1ccc(Cl)cc1F | 1.38 |
| COCc1csc(NC(=O)NCc2ncccc2C)n1 | 0.235 |
| CCc1nnc(CN(CC)C(=O)C2CC(=O)N(C3CCCC3)C2)o1 (configuration not stated) | -10.6 |
| Cc1nc(CN2CC[C@H]3C[C@H](c4ccncn4)O[C@@H]3C2)cs1 | -3.68 |
| CC(C)(N)CN1CCC(c2nnc(CN3CCCC3)n2C2CC2)CC1 | -0.439 |
| CS(=O)(=O)Cc1nc(CCc2ccccc2)nn1-c1ccccn1 | -10.4 |
| CCc1nccn1CCCn1ccnc1-c1[nH]cnc1C | 5.17 |
| O=C1CCC(=O)N1Cc1ccc(C(=O)N2CCCC2c2cccs2)cc1 (configuration not stated) | -11.1 |
| COc1ccc(S(N)(=O)=O)cc1C(=O)N(C)Cc1cc(C)on1 | 24.6 |
| CCC(O)CN(Cc1ccccc1)S(=O)(=O)c1cnc(C)s1 (configuration not stated) | -9.64 |
| CCCc1nn(C2CCCN(C(C)C)C2=O)c(=O)o1 (configuration not stated) | -9.22 |
| O=C(Cn1cnc2cc3c(cc21)OCCCO3)NC1CCCC1 | 25.4 |

| SMILES | cytotoxicity at 70.5 h [%] |
| --- | --- |
| COC(=O)CN(C(=O)c1cc(C(C)C)no1)c1cccc(F)c1 | -8.3 |
| COCC(=O)N1CCC2(CCCN(Cc3cnn(C)c3)C2)C1 (configuration not stated) | -3.28 |
| O=C(NCc1csc(Br)c1)c1ccncc1 | -16.8 |
| CC(C)c1nnc2n1CCN(C(=O)c1ccc3c(c1)COC3)C2 | -0.783 |
| CCOC(=O)N1CCN(CC(=O)Nc2nnc(C)s2)CC1 | -6.46 |
| CN(C)CC1CN(C(=O)NCc2ccccc2)Cc2nccn2C1 (configuration not stated) | -5.97 |
| CN1CCCC(c2ccnc(C(=O)NCC3CC3)c2)C1 (configuration not stated) | -2.35 |
| CC(C)COC(=O)N1CCCN(C(=O)c2ccnc(N(C)C)c2)CC1 | 1.08 |
| Cc1cc(NCc2cccnc2)n2nc(C)cc2n1 | -8.91 |
| OC(CN1CCCCCCC1)c1ccc(OC(F)(F)F)cc1 (configuration not stated) | 7.33 |
| Cc1ccnc(NC(=O)C2(n3cnnn3)CCCCC2)c1 | -23.1 |
| CC(Cn1cccn1)NC(=O)Nc1ccc(N2CCCCC2)nc1 (configuration not stated) | -7.26 |
| COc1cccc(CCNS(=O)(=O)c2ccc(NC(C)=O)cc2)c1 | 2.8 |
| CC(C)N1CCc2[nH]nc(C(=O)N3CCOCC3)c2C1 | -12.9 |
| CC(NS(C)(=O)=O)C(=O)N(C)Cc1csc(-c2ccccc2)n1 (configuration not stated) | -13.9 |
| O=C(NCC1CC1)Nc1cnc2cc(Cl)ccc2c1O | -1.93 |
| Cc1noc([C@H]2C[C@H]3CN(C(=O)Cc4ccsc4)CC[C@H]3O2)n1 | -9.17 |
| CN(Cc1ncnn1C)C(=O)Nc1ccc(OC(F)F)cc1 | -8.26 |
| Cc1ccc(NC2CCCN(C3Cc4ccccc4C3)C2)nn1 (configuration not stated) | -4.1 |
